Test results as given in patent publication US20210030758A1, “TREATMENT OF CANCERS HAVING DRIVING ONCOGENIC MUTATIONS” (G1 Therapeutics, Inc., priority 2018, published 2021).

Tests used:
[1] = test system: LC2/ad non-small cell lung cancer cells expressing an oncogenic CCDC6-RET fusion; assay: LC2/ad cell proliferation by CellTiter-Glo; assay type: cell-based
Method: LC2/ad non-small cell lung cancer cells expressing an oncogenic CCDC6-RET fusion were dosed with increasing concentrations of Compound 1, a RET inhibitor selected from pralsetinib (BLU-667) or agerafenib (RXDX-105), or RET inhibitor+300 nM Compound 1. Cell proliferation was measured by CellTiter-Glo after six days.

[2] = thermal stress stability of solid form; assay type: physicochemical; conditions: 60° C. for 7 days
Method: (§1) Form B is stable under thermal stress of 60° C. for 7 days. […] In one embodiment isolated Compound IA Form B is stable for at least about 6, 7, 8, 9, 10, 11, 12, 14, 16, 18, 20, 22, or 24 months.

[3] = long-term stability study of solid form; assay type: physicochemical; conditions: 25° C. and 60% relative humidity
Method: as §1

[4] = dynamic vapor sorption experiment; assay type: physicochemical; conditions: exposure to 90% relative humidity
[5] = test system: NSCLC PDX models; assay: NSCLC PDX model panel, tumor growth inhibition; assay type: in vivo; conditions: for sensitivity of PDX models by genetic alteration: 100 mg/kg
Method: NSCLC PDX models (n=60) were treated for up to 28 days with daily oral doses of vehicle or Compound 1 (100 mg/kg). Tumor growth inhibition (TGI) was calculated when tumors reached pre-specified tumor burden or on day 28. Genetic alterations from pre-treated samples were evaluated using FoundationOne. 58% TGI was used as the responder/non-responder cutoff for correlation analysis.

[6] = test system: EML4-ALK NSCLC PDX tumors (Champions PDX model CTG-0852); assay type: in vivo; conditions: single agents, oral once daily, after 60 days; Compound I 50 mg/kg, crizotinib 20 mg/kg

CO[C@]1(C(=O)N[C@@H](C)c2ccc(-n3cc(F)cn3)nc2)CC[C@H](c2nc(C)cc(Nc3cc(C)[nH]n3)n2)CC1 [pralsetinib, Pralsetinib]
300 nM relative to the IC50 for cellular proliferation [1]: > 10 fold

CC(C)N1CCN(c2ccc(Nc3ncc4cc5n(c4n3)C3(CCCCC3)CNC5=O)nc2)CC1 [Compound IA Form B]
stability under thermal stress [2]: stable
long-term stability, time stable [3]: at least 1 year
solid form after dynamic vapor sorption [4]: remained in Form B

CC(C)N1CCN(c2ccc(Nc3ncc4cc5n(c4n3)C3(CCCCC3)CNC5=O)nc2)CC1 [Compound I]
median TGI for adenocarcinoma ([5]; NSCLC PDX models, adenocarcinoma, 100 mg/kg daily oral, up to 28 days): 73%
median TGI for squamous cell carcinoma ([5]; NSCLC PDX models, squamous cell carcinoma, 100 mg/kg daily oral, up to 28 days): 66%
sensitivity of PDX models by genetic alteration ([5]; models with genetic alterations such as KRAS and EGFR): increased sensitivity
sensitivity of PDX models by genetic alteration ([5]; models with genetic alterations such as RB1): resistance
TGI [6]: 87%
